Test results reported in patent US4417052A, “Phenyl-lower-alkyl piperidines and pyrrolidines” (Sterling Drug Inc., priority 1981, dated 1983).
In brackets after ≈: the same amount, converted by molar mass. Where two headings read alike, the source gives them in different places.

What was measured:
[1] = test system: carrageenin-induced foot edema; assay: inhibition of carrageenin-induced foot edema test (C.E.); format: in vivo; conditions: oral; for inhibition in vivo at 4 µmol/kg: dose 0.004 millimoles/kg; for inhibition in vivo at 4 µmol/kg / inhibition in vivo at 20 µmol/kg / inhibition in vivo at 5 µmol/kg / inhibition in vivo at 80 µmol/kg / inhibition in vivo at 324 µmol/kg: read-out: C.E. percent inhibition; for inhibition in vivo at 20 µmol/kg: dose 0.02 millimoles/kg; for inhibition in vivo at 5 µmol/kg: dose 0.005 millimoles/kg; for inhibition in vivo at 80 µmol/kg: dose 0.08 millimoles/kg
[2] = test system: herpes simplex virus types 1 and 2; assay: in vitro anti-viral activity against herpes simplex viruses types 1 and 2 (BSC cell line, monkey kidney); format: cell-based; conditions: read-out: MIC (Minimum Inhibitory Concentration)
Method: Monolayers of tissue cultures (BSC, cell line, monkey kidney) were infected with one hundred TCID50 (Tissue Culture Infectious Dose50) of infectious virus. After one hour of virus adsorption, fresh maintenance medium containing various concentrations of the test compounds was added to the monolayers. Cultures were then incubated at 36°-37° C., and after forty-eight and seventy-two hours, cultures were examined microscopically. […] In the presence of an active compound, cells grow normally similar to those in the tissue culture control. Simultaneously with the anti-viral evaluation, the toxicity of each compound was evaluated in separate cultures. Identical concentrations of the test compound were added to the tissue culture monolayers in the absence of virus. Those concentrations of the compound which show toxic effects on the cells were not considered in the anti-viral evaluation.

[3] = test system: adjuvant-induced arthritis; assay: inhibition of adjuvant-induced arthritis test (A.A.); format: in vivo; conditions: oral, read-out: A.A. percent inhibition; for inhibition in vivo at 5 µmol/kg: dose 0.005 millimoles/kg; for inhibition in vivo at 20 µmol/kg: dose 0.02 millimoles/kg; for inhibition in vivo at 80 µmol/kg: dose 0.08 millimoles/kg
Method: Anti-inflammatory activity was determined using (1) the inhibition of carrageenin-induced foot edema test essentially described by Winter et al., Proc. Soc. Exp. Biol. and Med. 111, 554 (1962) as modified by Van Arman et al., J. Pharmacol. Exptl. Therap. 150, 328 (1965) and (2) a modification of the inhibition of adjuvant-induced arthritis test described by Pierson, J. Chronic Diseases 16, 863 (1963) and Glenn et al., Am. J. Vet. Res. 26, 1180 (1965).
The N-{2-,3- and 4-[R1 -(phenyl)-C(=X)]-phenyl-lower-alkyl}amines of formulas I, Ia and Ib of the invention have been tested in the carrageenin edema (CE) and adjuvant arthritis (AA) tests and found to have anti-inflammatory activity. For comparative purposes, data obtained in the carrageenin edema test on the reference compound (designated "Ref."), 4[(3-benzoylphenyl)methyl]morpholine, disclosed in French Patent 1,549,342, are also given. All data were obtained on oral administration.

[4] = test system: phenyl-p-quinone-induced writhing; assay: phenyl-p-quinone-induced writhing test (PPQ); format: in vivo, mice; conditions: Mus musculus, po
Text: (§1) The test procedures used to determine the analgesic activities of the compounds have been described in detail in the prior art and are as follows: the acetylcholine-induced abdominal constriction test, which is a primary analgesic screening test designed to measure the ability of a test agent to suppress acetylcholine-induced abdominal constriction in mice, described by Collier et al., Brit. J. Pharmacol. Chemotherap. 32, 295 (1968); a modification of the anti-bradykinin test, which is also a primary analgesic screening procedure, described by Berkowitz et al., J. Pharmacol. Exp. Therap. 177, 500-508 (1971), Blane et al., J. Pharm. Pharmacol. 19, 367-373 (1967), Botha et al., Eur. J. Pharmacol. 6, 312-321 (1969) and Deffenu et al., J. Pharm. Pharmacol. 18, 135 (1966); the phenyl-p-quinone-induced writhing test, also a primary analgesic screening test, designed to measure the ability of a test agent to prevent phenyl-p-quinone-induced writhing in mice, described by Pearl and Harris, J. Pharmacol. Exptl. Therap. 154, 319-323 (1966); the rat tail flick radiant thermal heat analgesic (agonist) test described by D'Amour and Smith, J. Pharmacol. Exptl. Therap. 72, 74 (1941) as modified by Bass and VanderBrook, J. Am. Pharm. Assoc. Sci. Ed. […]

[5] = test system: effect of phenazocine in the rat tail flick response; assay: phenazocine antagonist test in the rat tail flick response (T.F. Antag.); conditions: in vivo
Text: as §1

[6] = antipyretic activity in the rat; format: in vivo
bradykinin = assay: anti-bradykinin test (BDK); format: in vivo
Text: (§2) The test procedures used to determine the analgesic activities of the compounds have been described in detail in the prior art and are as follows: the acetylcholine-induced abdominal constriction test, which is a primary analgesic screening test designed to measure the ability of a test agent to suppress acetylcholine-induced abdominal constriction in mice, described by Collier et al., Brit. J. Pharmacol. Chemotherap. 32, 295 (1968); a modification of the anti-bradykinin test, which is also a primary analgesic screening procedure, described by Berkowitz et al., J. Pharmacol. Exp. Therap. 177, 500-508 (1971), Blane et al., J. Pharm. Pharmacol. 19, 367-373 (1967), Botha et al., Eur. J. Pharmacol. 6, 312-321 (1969) and Deffenu et al., J. Pharm. Pharmacol. 18, 135 (1966); the phenyl-p-quinone-induced writhing test, also a primary analgesic screening test, designed to measure the ability of a test agent to prevent phenyl-p-quinone-induced writhing in mice, described by Pearl and Harris, J. Pharmacol. Exptl. Therap. 154, 319-323 (1966); the rat tail flick radiant thermal heat analgesic (agonist) test described by D'Amour and Smith, J. Pharmacol. Exptl. Therap. 72, 74 (1941) as modified by Bass and VanderBrook, J. Am. Pharm. Assoc. Sci. Ed. 41, 569 (1956); and the phenazocine antagonist test, which is designed to measure the ability of a test agent to antagonize the effect of phenazocine in the above-indicated rat tail flick response test, described by Harris and Pierson, J. Pharmacol. Exptl. Therap. 143, 141 (1964).
Data so obtained for the species found active in one or more of these tests are given in TABLE C below, results being expressed either in terms of the ED50 or, in the acetylcholine-induced writhing test, as the percent inhibition of writhing in the test animals at a given dose level. The ED50 is the calculated Effective Dose in 50% of the test animals. The abbreviations s.c., p.o. and i.p. stand for subcutaneous, peroral and intraperitoneal routes of administration, respectively. The compounds are identified by the Example numbers above where their preparations are described.

[7] = test system: acetylcholine-induced abdominal constriction; assay: acetylcholine-induced abdominal constriction test (Ach); format: in vivo, mice
Text: as §2, with “J.” for “The test procedures used to determine the analgesic activities of the compounds have been described in detail in the prior art and are as follows: the acetylcholine-induced abdominal constriction test, which is a primary analgesic screening test designed to measure the ability of a test agent to suppress acetylcholine-induced abdominal constriction in mice, described by Collier et al., Brit. J.”
The ED50 is the calculated Effective Dose in 50% of the test animals. The abbreviations s.c., p.o. and i.p. stand for subcutaneous, peroral and intraperitoneal routes of administration, respectively. The compounds are identified by the Example numbers above where their preparations are described.

rat tail flick response = assay: rat tail flick radiant thermal heat analgesic (agonist) test (T.F. Ag.); conditions: in vivo
Text: as §1

[8] = Mus musculus, po; read-out: Ach ED50
[9] = Mus musculus, po, read-out: Ach ED50

Row | MIC [2] [µg/mL] | Compound | inhibition in vivo at 20 µmol/kg [1] [%] | inhibition in vivo at 5 µmol/kg [3] [%] | inhibition in vivo at 20 µmol/kg [3] [%] | inhibition in vivo at 80 µmol/kg [3] [%] | inhibition in vivo at 80 µmol/kg [1] [%] | ED50 (bradykinin; po) [mg/kg] | ED50 [7, 8] [mg/kg] | inhibition in vivo at 324 µmol/kg ([1]; dose 0.324 millimoles/kg) [%] | further results
1 | 6 (≈ 13.6 µM) | CC(CN1CCCCC1CC1CCCCC1)c1cccc(C(O)c2ccc(Cl)cc2)c1 (stereo not drawn) [Example 5, 2-cyclohexylmethyl-1-{2-[3-(α-hydroxy-4-chlorobenzyl)phenyl]propyl}piperidine] | 41 | 64 | 70 | 88 |  |  |  |  | inhibition in vivo at 4 µmol/kg [1]: 14%
2 | 6 (≈ 15.4 µM) | CC(CN1CCCCC1CC1CCCCC1)c1cccc(Cc2ccccc2)c1 (centres unmarked) [Example 10, 2-cyclohexylmethyl-1-[2-(3-benzylphenyl)propyl]piperidine] | 26 | 25 | 63 | 91 | 60 |  |  |  | inhibition in vivo at 5 µmol/kg [1]: 7%
3 |  | CC(CN1CCC2(CC1)OCCO2)c1cccc(C(=O)c2ccccc2)c1 (centres unmarked) [Example 7G, 8-[2-(3-Benzoylphenyl)propyl]-1,4-dioxa-8-azaspiro[4,5]decane] |  |  |  |  |  | 14 | 4.7 |  | ED50 [4]: 200 mg/kg; T.F. Antag. [5]: Inac.; antipyretic activity ([6]; 3.25 mg./kg. p.o.): not at 6.5 or 3.25 mg./kg.; antipyretic activity ([6]; 6.5 mg./kg. p.o.): not at 6.5 or 3.25 mg./kg.; antipyretic activity ([6]; 13 mg./kg. p.o.): Showed significant antipyretic activity; antipyretic activity ([6]; 26 mg./kg. p.o.): Showed significant antipyretic activity; T.F. Ag. (rat tail flick response): Inac.
4 | 50 (≈ 155 µM) | CC1CCCC(C)N1CCc1cccc(C(O)c2ccccc2)c1 (stereo not drawn) [Example 1B, 2,6-Dimethyl-1-{2-[3-(α-hydroxybenzyl)phenyl]ethyl}piperidine] | 0 |  |  |  | 13 |  |  |  | inhibition in vivo at 4 µmol/kg [1]: 0%; toxicity (entry in C.E. column) ([1]; dose 0.324 millimoles/kg): Toxic
5 | 6 (≈ 14.9 µM) | CC(CN1CCCCC1CC1CCCCC1)c1cccc(C(=O)c2ccccc2)c1 (centres unmarked) [12, 14] | 41 | 69 | 81 | 87 | 51 | 63 | 55 | 69 | inhibition in vivo at 5 µmol/kg [1]: 21%; Ach percent inhibition of writhing ([7]; dose 75, s.c.): 27%
6 |  | CC(CN1CCOCC1)c1cccc(C(=O)c2ccccc2)c1.Cl.O (centres unmarked) [7H (HCl), 4-[2-(3-benzoylphenyl)propyl]morpholine hydrochloride monohydrate] |  |  |  |  | 68 | 13 | 8.4 | 73 | ED50 [4]: 132 mg/kg; T.F. Antag. [5]: Inac.; antipyretic activity ([6]; 3.25 mg./kg. p.o.): not at 3.25 mg./kg.; antipyretic activity ([6]; 6.5 mg./kg. p.o.): Showed significant antipyretic activity; antipyretic activity ([6]; 13 mg./kg. p.o.): Showed significant antipyretic activity; antipyretic activity ([6]; 26 mg./kg. p.o.): Showed significant antipyretic activity; ED50 (bradykinin; ip): 82 mg/kg; ED50 ([7]; Mus musculus, sc; read-out: Ach ED50): 14 mg/kg; T.F. Ag. (rat tail flick response): Inac.
7 |  | CC(C)(CN1CCC2(CC1)OCCO2)c1ccc(C(=O)c2ccccc2)cc1.Cl [Example 24L, 8-[2,2-dimethyl-2-(4-benzoylphenyl)ethyl]-1,4-dioxa-8-azaspiro[4,5]decane hydrochloride] |  |  |  | 24 | 46 |  |  | 70 | ED50 [7, 9]: 60 mg/kg
8 |  | CC(CN1CCNCC1)c1ccc(C(=O)c2ccccc2)cc1.Cl.Cl (centres unmarked) [Example 24C, 1-[2-(4-benzoylphenyl)propyl]piperazine dihydrochloride] |  |  |  |  | 16 |  |  | 41 | ED50 [7, 9]: 20 mg/kg; inhibition in vivo at 324 µmol/kg ([3]; dose 0.324 millimoles/kg): 63%
